Experimental data taken from ChEMBL document CHEMBL1135153, “Cephalosporin-derived inhibitors of beta-lactamase. Part 4: The C3 substituent” (Bioorg Med Chem Lett, 2002).

Molecular target: Beta-lactamase (Enterobacter cloacae, UniProt P05364)
Test: Inhibitory activity against Class C beta-lactamase

Beta-lactamase, sequence (P05364 whole entry): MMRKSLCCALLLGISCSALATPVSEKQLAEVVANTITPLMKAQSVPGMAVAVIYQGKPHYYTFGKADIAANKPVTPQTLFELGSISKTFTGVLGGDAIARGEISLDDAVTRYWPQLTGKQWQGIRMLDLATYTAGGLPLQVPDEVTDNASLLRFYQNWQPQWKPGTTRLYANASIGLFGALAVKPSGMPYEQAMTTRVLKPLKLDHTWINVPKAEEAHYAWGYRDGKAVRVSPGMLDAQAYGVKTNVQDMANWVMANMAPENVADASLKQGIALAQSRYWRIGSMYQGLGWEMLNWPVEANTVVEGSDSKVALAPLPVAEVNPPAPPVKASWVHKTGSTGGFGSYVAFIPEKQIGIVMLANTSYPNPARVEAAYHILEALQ

Compound	IC50 [nM]
O=C(O)C1=C(Cl)CS(=O)(=O)[C@@H]2/C(=C\c3ccccn3)C(=O)N12	3
CS(=O)(=O)C1=C(C(=O)O)N2C(=O)/C(=C/c3ccccn3)[C@H]2S(=O)(=O)C1	90.7
O=C(/C=C/C1=C(C(=O)O)N2C(=O)/C(=C/c3ccccn3)[C@H]2S(=O)(=O)C1)NCc1ccccc1	110
O=C(O)C1=C(Br)CS(=O)(=O)[C@@H]2/C(=C\c3ccccn3)C(=O)N12	2.9
O=C(O)C1=C(c2cccs2)CS(=O)(=O)[C@@H]2/C(=C\c3ccccn3)C(=O)N12	40.3
O=C(O)C1=C(S(=O)(=O)c2ccccc2)CS(=O)(=O)[C@@H]2/C(=C\c3ccccn3)C(=O)N12	174
CSC1=C(C(=O)O)N2C(=O)/C(=C/c3ccccn3)[C@H]2S(=O)(=O)C1	59
O=C(O)C1=C(Sc2ccccc2)CS(=O)(=O)[C@@H]2/C(=C\c3ccccn3)C(=O)N12	21.7
O=C(/C=C/C1=C(C(=O)O)N2C(=O)/C(=C/c3ccccn3)[C@H]2S(=O)(=O)C1)NCC(F)(F)F	1180
O=C(O)C1=C(F)CS(=O)(=O)[C@@H]2/C(=C\c3ccccn3)C(=O)N12	11
O=C(O)C1=C(c2ccccc2)CS(=O)(=O)[C@@H]2/C(=C\c3ccccn3)C(=O)N12	38
O=C(O)C1=C(I)CS(=O)(=O)[C@@H]2/C(=C\c3ccccn3)C(=O)N12	4.7
O=C(O)C1=CCS(=O)(=O)[C@@H]2/C(=C\c3ccccn3)C(=O)N12	116
O=C(O)C1=C(C(=O)O)N2C(=O)/C(=C/c3ccccn3)[C@H]2S(=O)(=O)C1	32
O=C(/C=C/C1=C(C(=O)O)N2C(=O)/C(=C/c3ccccn3)[C@H]2S(=O)(=O)C1)Nc1ccc(O)cc1	35
CN1CCN(C(=O)/C=C/C2=C(C(=O)O)N3C(=O)/C(=C/c4ccccn4)[C@H]3S(=O)(=O)C2)CC1	6340
O=C(/C=C/C1=C(C(=O)O)N2C(=O)/C(=C/c3ccccn3)[C@H]2S(=O)(=O)C1)Nc1c(F)c(F)c(F)c(F)c1F	127

The remaining lines, values ahead:

IC50 [nM]	Compound
22	NC(=O)/C=C/C1=C(C(=O)O)N2C(=O)/C(=C/c3ccccn3)[C@H]2S(=O)(=O)C1
310	O=C(O)CNC(=O)/C=C/C1=C(C(=O)O)N2C(=O)/C(=C/c3ccccn3)[C@H]2S(=O)(=O)C1
1100	NNC(=O)/C=C/C1=C(C(=O)O)N2C(=O)/C(=C/c3ccccn3)[C@H]2S(=O)(=O)C1
5.5	N=C(N)NCCNC(=O)/C=C/C1=C(C(=O)O)N2C(=O)/C(=C/c3ccccn3)[C@H]2S(=O)(=O)C1
824	O=C(/C=C/C1=C(C(=O)O)N2C(=O)/C(=C/c3ccccn3)[C@H]2S(=O)(=O)C1)NC1CC1
212	O=C(/C=C/C1=C(C(=O)O)N2C(=O)/C(=C/c3ccccn3)[C@H]2S(=O)(=O)C1)NCCO
4200	NCCCNC(=O)/C=C/C1=C(C(=O)O)N2C(=O)/C(=C/c3ccccn3)[C@H]2S(=O)(=O)C1
128	O=C(/C=C/C1=C(C(=O)O)N2C(=O)/C(=C/c3ccccn3)[C@H]2S(=O)(=O)C1)NO
